The values that follow are results of earlier work, collected in patent publication US12171169B2, “Pest repelling drip irrigation pipe” (RIVULIS PLASTRO LTD., priority 2017, dated 2024).

For one data set, the system named is pests. The following applies: 1R-cis versus 1S-cis enantiomer.
Another data set has as its system humans. The following applies: 1S-cis versus 1R-cis enantiomer.

With `Cc1c(COC(=O)[C@@H]2[C@H](/C=C(\Cl)C(F)(F)F)C2(C)C)cccc1-c1ccccc1` [1R-cis-bifenthrin, (2-methyl-[1,1′-biphenyl]-3-yl)methyl (1R,3R)-3-((Z)-2-chloro-3,3,3-trifluoroprop-1-en-1-yl)-2,2-dimethylcyclopropane-1-carboxylate], in the data set with pests, the “effectiveness as a pesticide relative to 1S-cis-bifenthrin” value was “more than 300 times”.

For `Cc1c(COC(=O)[C@H]2[C@@H](/C=C(\Cl)C(F)(F)F)C2(C)C)cccc1-c1ccccc1` [1S-cis-Bifenthrin, (2-methyl-[1,1′-biphenyl]-3-yl)methyl (1S,3S)-3-((Z)-2-chloro-3,3,3-trifluoroprop-1-en-1-yl)-2,2-dimethylcyclopropane-1-carboxylate], in the data set on humans, the “toxicity to humans relative to 1R-cis-bifenthrin” value was 3-4 times.
